Laboratory results taken from patent US9549909B2, “Method for the treatment of dravet syndrome” (KATHOLIEKE UNIVERSITEIT LEUVEN, priority 2013, dated 2017).

Tests used:
[1] = test system: self-induced photosensitive seizures; conditions: cited from earlier work
heart valve = test: Echocardiography monitoring for heart valve defects in subjects treated with fenfluramine; format: in vivo, human
From the text: The subjects treated with fenfluramine were monitored using echocardiography for possible heart valve defects.

refractory epilepsy = conditions: children with refractory epilepsy; dose of 0.5 to 1 mg/kg/day; cited from earlier work
[2] = test system: seizures in Dravet Syndrome patients; test: Long-term fenfluramine and valproate treatment of Dravet Syndrome patients (Ceulemans et al. data); format: in vivo, human
From the text: The following table provides results based on the data presented in Ceulemans et al., Epilepsia (2012) 53(7):1131-1139.

[3] = test system: seizures in Dravet Syndrome patients; conditions: Combined STICLO-France and Italy; stiripentol and either valproate or clobazam; two months; cited from earlier work
[4] = fenfluramine and valproate, average daily dose 0.34 mg/kg/day for between 1 and 22 years, 0.34 mg/kg/day

Row | Compound | Response of self-induced photosensitive seizures ([1]; four cases, Aicardi and Gastaut) | Effect on pattern sensitivity-induced seizures resistant to anticonvulsive treatment ([1]; one child, Clemens 1988) | Heart valve defects by echocardiography (heart valve) | Effect on number of seizures (refractory epilepsy) | Types of seizures reduced ([2]; Dravet Syndrome patients, not only photosensitive or self-induced seizures) | >50% Reduction in Seizures (responders) [2, 4] [%] | Seizure-free Patients [2, 4] [%] | Responders - >50% Reduction in the Number of Seizures [3] [%] | Seizure Free Patients [3] [%]
1 | CCNC(C)Cc1cccc(C(F)(F)F)c1 (stereo not drawn) [Fenfluramine, 3-trifluoromethyl-N-ethylamphetamine] | responded to treatment | successfully terminated these self-induced seizures | No clinically relevant defects were identified | reduction in the number of seizures | effectively reduced the incidence of all types of seizures | 75 | 66.6 |  | 
2 | CC(C)(C)C(O)/C=C/c1ccc2c(c1)OCO2 (stereo not drawn) [Stiripentol] |  |  |  |  |  |  |  | 69.7 | 38.7
